Consider 17 compounds from patent publication US11111247B2, “Pyrazolopyrimidine compounds and uses thereof” (Incyte Corporation, priority 2018, dated 2021).

One experiment has as its target FGFR2 (P) (Homo sapiens (Human), UniProt P21802). The experiment is described as follows: FGFR Enzymatic Assay, FGFR2 phosphorylated. To be noted: phosphorylated enzyme, ATP near or below Km.
In a further experiment the target is FGFR1 (UP) (Homo sapiens (Human), UniProt P11362). As to the kind of experiment: FGFR Enzymatic Assay, FGFR1 un-phosphorylated.
Sequence of FGFR1 (UP) (P11362 22-822): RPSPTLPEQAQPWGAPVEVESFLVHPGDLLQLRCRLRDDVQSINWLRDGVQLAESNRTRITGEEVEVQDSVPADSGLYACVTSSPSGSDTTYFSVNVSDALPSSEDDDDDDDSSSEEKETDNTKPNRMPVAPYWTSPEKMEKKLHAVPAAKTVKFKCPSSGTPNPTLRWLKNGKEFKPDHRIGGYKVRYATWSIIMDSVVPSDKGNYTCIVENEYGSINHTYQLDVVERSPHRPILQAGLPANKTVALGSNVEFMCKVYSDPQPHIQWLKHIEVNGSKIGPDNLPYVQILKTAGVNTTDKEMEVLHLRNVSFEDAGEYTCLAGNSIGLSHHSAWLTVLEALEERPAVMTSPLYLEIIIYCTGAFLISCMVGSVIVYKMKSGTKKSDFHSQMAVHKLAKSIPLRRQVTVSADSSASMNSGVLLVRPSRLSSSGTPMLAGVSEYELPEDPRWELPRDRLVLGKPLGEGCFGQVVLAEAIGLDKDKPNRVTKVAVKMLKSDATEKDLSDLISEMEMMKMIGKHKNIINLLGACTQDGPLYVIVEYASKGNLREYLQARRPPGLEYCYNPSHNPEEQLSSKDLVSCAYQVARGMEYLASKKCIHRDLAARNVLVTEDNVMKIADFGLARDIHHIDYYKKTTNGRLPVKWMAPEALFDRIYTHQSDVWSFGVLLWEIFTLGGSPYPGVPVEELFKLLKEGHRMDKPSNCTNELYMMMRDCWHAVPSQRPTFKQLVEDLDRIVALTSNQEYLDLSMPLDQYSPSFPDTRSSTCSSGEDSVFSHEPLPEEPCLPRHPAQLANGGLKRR
In another experiment the target is FGFR3 (UP) (Homo sapiens (Human), UniProt P22607). The experiment is described as follows: FGFR Enzymatic Assay, FGFR3 un-phosphorylated.
Sequence of FGFR3 (UP) (P22607 23-806): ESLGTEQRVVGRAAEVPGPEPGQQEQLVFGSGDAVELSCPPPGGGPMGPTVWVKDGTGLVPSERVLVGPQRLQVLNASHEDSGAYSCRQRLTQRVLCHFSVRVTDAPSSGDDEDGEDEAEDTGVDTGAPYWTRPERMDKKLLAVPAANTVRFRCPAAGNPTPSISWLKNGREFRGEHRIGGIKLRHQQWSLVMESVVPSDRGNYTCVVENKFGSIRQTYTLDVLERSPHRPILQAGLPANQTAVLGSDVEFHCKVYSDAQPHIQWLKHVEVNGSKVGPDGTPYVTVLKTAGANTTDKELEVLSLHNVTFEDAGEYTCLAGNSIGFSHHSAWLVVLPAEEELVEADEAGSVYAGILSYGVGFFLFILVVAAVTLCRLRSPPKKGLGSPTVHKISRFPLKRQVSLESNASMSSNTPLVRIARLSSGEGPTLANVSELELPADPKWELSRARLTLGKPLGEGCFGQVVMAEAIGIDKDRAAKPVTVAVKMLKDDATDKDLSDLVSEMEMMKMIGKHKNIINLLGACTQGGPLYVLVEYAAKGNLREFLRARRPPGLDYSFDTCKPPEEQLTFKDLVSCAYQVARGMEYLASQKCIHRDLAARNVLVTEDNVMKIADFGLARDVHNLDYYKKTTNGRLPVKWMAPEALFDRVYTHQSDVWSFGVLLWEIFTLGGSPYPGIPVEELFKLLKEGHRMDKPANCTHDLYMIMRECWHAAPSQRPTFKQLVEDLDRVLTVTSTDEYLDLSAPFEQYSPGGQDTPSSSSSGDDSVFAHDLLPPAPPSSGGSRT
Another experiment deals with ALK2 (aa 147-end) (Homo sapiens (Human), UniProt Q04771). As to the kind of experiment: ALK2 HTRF Assay. The class given is biochemical. As to the method:
The enzymatic assays were conducted in white 384-well polystyrene plates in a final volume of 8 μL. The inhibitors were serially diluted in DMSO and added to the plate wells prior to addition of the other reaction components. The assays were carried out at 25° C. in the assay buffer (50 mM HEPES, pH 7.1, 10% Glycerol, 0.01% Brij50, 10 mM MgCl2, 1 mM EGTA, 5 mM DTT, and 0.01% BSA), containing 50 nM LANCE Ultra ULight™-DNA Topoisomerase 2-alpha peptide (Perkin Elmer TRF0130), and 3 uM, 100 uM or 1 mM ATP (as specified). […] The reaction was read on a PHERAstar FS plate reader (BMG Labtech). IC50 determination was performed by fitting percent control activity versus the log of the inhibitor concentration using the IDBS XLFit and GraphPad Prism 5.0 software.

The next experiment deals with ALK2 (Homo sapiens (Human), UniProt Q04771). The experiment is described as follows: ALK2 Cellular Assay (phospho SMAD1 HTRF, BMP-7 stimulated HeLa cells). The class given is cell-based. To be noted: HeLa cells, 200 ng/ml BMP-7, Phospho SMAD1 (S463/S465) HTRF; read-out: ALK2 Cellular Assay PSMAD. The protocol:
HeLa cells were cultured in MEM media with 10% FBS. […] HeLa cells were plated in 96 well flat bottomed plate at 50,000 cells per well and incubated overnight. Next day, media was removed and 50 μL of fresh complete media was added. 5 μL compound was added to cells (3 μM final concentration at highest) and incubated for 60 min at 37° C. 200 ng/ml BMP-7 was added and incubated for 30 min at 37° C. After incubation, the media was removed, washed 2×PBS, and proceeded with HTRF kit according to Cisbio HTRF kit instructions for measuring the Phospho SMAD1 (S463/S465). Finally, both the donor and acceptor were added into 384 well plates and incubated at room temperature overnight and the HTRF signal was measured via Pherastar the next day.
In general terms: Time-resolved FRET reads energy transfer from a long-lived donor to a nearby acceptor.

[1] abbreviates: read-out: ALK2 3 μM IC50, 3 uM ATP.
Where [2] appears, read: read-out: ALK2 100 μM IC50, 100 uM ATP.
Setting [3] is: read-out: ALK2 1 mM IC50, 1 mM ATP.
Where [4] appears, read: read-out: FGFR1 (UP) IC50, un-phosphorylated enzyme, ATP near or below Km.

The structures appear in SMILES notation. Where two headings read alike, the source gives them in different places.

Sequence of FGFR2 (P) (P21802 22-821): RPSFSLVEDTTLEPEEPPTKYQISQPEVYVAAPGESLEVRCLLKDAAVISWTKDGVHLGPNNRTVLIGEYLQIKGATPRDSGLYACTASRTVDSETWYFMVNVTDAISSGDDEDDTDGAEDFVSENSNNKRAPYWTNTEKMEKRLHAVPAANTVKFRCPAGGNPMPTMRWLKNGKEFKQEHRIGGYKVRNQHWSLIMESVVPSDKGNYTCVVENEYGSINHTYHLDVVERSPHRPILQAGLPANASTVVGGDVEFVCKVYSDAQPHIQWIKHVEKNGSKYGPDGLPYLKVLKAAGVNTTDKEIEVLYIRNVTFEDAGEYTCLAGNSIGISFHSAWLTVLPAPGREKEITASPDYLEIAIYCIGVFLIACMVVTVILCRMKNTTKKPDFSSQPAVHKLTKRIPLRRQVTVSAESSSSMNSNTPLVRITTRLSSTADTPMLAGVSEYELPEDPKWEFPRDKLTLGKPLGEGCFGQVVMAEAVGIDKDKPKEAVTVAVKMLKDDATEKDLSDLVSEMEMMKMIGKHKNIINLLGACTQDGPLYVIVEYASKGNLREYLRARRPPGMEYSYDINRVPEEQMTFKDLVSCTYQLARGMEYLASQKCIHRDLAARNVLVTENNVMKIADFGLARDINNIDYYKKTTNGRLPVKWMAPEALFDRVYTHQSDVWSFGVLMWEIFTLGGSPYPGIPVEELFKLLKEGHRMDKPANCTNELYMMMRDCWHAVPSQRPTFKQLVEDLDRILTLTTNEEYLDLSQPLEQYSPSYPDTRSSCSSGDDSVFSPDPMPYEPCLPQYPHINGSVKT
Sequence of ALK2 (Q04771 21-509): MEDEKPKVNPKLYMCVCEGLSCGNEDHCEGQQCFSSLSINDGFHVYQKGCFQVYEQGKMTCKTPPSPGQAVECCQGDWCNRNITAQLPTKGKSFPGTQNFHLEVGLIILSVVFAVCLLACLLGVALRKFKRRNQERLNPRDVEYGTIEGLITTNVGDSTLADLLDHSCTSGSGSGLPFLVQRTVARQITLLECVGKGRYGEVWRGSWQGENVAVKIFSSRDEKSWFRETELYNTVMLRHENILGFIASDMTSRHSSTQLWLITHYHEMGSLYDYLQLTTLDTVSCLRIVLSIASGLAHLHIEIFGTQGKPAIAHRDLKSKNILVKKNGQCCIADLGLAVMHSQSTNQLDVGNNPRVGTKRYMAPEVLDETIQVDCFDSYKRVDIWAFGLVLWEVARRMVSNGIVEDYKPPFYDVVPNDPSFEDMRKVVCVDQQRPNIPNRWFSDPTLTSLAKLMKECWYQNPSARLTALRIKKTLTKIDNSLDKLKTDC
Sequence of ALK2 (aa 147-end) (Q04771 147-509): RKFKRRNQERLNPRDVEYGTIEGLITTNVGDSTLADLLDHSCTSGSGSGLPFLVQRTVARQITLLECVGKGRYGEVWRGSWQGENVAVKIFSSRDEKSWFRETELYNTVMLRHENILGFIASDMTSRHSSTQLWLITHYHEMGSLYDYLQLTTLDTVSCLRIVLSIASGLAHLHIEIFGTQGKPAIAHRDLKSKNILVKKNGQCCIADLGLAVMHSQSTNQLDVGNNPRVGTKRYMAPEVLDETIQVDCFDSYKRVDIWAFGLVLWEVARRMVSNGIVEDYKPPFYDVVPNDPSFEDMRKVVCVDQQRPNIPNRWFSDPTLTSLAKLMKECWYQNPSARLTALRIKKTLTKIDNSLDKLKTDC

With `CC1c2nccn2CCN1c1ncc2[nH]nc(-c3cnn(C)c3)c2n1` (centres unmarked) [Example 43, 3-(1-Methyl-1H-pyrazol-4-yl)-5-(8-methyl-5,6-dihydroimidazo[1,2-a]pyrazin-7(8H)-yl)-1H-pyrazolo[4,3-d]pyrimidine], the IC50 on FGFR2 (P) (FGFR2 (P) IC50 (nM)) lay in the range of 100 to 500 nM; against FGFR1 (UP) it was 0.5 to 2 µM; on FGFR3 (UP), 0.1 to 0.5 µM.

For the compound `CN1CCN(c2ncc3[nH]nc(-c4cnn(C)c4)c3n2)CC1=O` [Example 36, 1-Methyl-4-(3-(1-methyl-1H-pyrazol-4-yl)-1H-pyrazolo[4,3-d]pyrimidin-5-yl)piperazin-2-one], the IC50 was in the range of 100 to 500 nM against FGFR2 (P) (FGFR2 (P) IC50 (nM)); 0.5 to 2 µM against ALK2 (aa 147-end) (ALK2 3 μM IC50, 3 uM ATP); 0.5 to 2 µM on ALK2 (aa 147-end) (ALK2 100 μM IC50, 100 uM ATP).

Take `CN1CC2CCC(C1=O)N2c1ncc2[nH]nc(-c3cnn(CCN4CCOCC4)c3)c2n1` (centres unmarked) [Example 58, 3-Methyl-8-(3-(1-(2-morpholinoethyl)-1H-pyrazol-4-yl)-1H-pyrazolo[4,3-d]pyrimidin-5-yl)-3,8-diazabicyclo[3.2.1]octan-2-one]: the IC50 on FGFR2 (P) (read-out: FGFR2 (P) IC50) was less than 100 nM; at ALK2 (aa 147-end) (ALK2 3 μM IC50, 3 uM ATP) it was 0.5 to 2 µM; on ALK2 (aa 147-end) (ALK2 100 μM IC50, 100 uM ATP), 0.5 to 2 µM.

Turning to `COC(=O)N1C[C@@H](C)N(c2ncc3[nH]nc(-c4ccc(N5CCN(C)CC5)cc4)c3n2)[C@@H](C)C1` [Example 22, Methyl (3R,5S)-3,5-dimethyl-4-(3-(4-(4-methylpiperazin-1-yl)phenyl)-1H-pyrazolo[4,3-d]pyrimidin-5-yl)piperazine-1-carboxylate], the IC50 at ALK2, on ALK2 (aa 147-end) (setting [1]), at ALK2 (aa 147-end) (setting [2]) and on ALK2 (aa 147-end) (setting [3]) was less than 0.1 µM in each case.

As to `C[C@@H]1CN(c2ccc(-c3n[nH]c4cnc(N5[C@H](C)CN(C(=O)N(C)C)C[C@@H]5C)nc34)cn2)CCN1` [Example 8, (3R,5S)—N,N,3,5-tetramethyl-4-(3-(6-((R)-3-methylpiperazin-1-yl)pyridin-3-yl)-1H-pyrazolo[4,3-d]pyrimidin-5-yl)piperazine-1-carboxamide], the IC50 is 0.1 to 0.5 µM at ALK2, less than 0.1 µM at ALK2 (aa 147-end) (setting [1]), less than 0.1 µM on ALK2 (aa 147-end) (setting [2]) and less than 0.1 µM on ALK2 (aa 147-end) (setting [3]).

As to `COCCN1CCN(c2ncc3[nH]nc(-c4cnn(C)c4)c3n2)C(C)C1=O` (centres unmarked) [Example 48, 1-(2-Methoxyethyl)-3-methyl-4-(3-(1-methyl-1H-pyrazol-4-yl)-1H-pyrazolo[4,3-d]pyrimidin-5-yl)piperazin-2-one], the IC50 against FGFR2 (P) (FGFR2 (P) IC50 (nM)) was 500 to 2000 nM; at FGFR1 (UP) (setting [4]), more than 2 µM; on FGFR3 (UP) it was 0.1 to 0.5 µM.

On to `CN1CC2CCC(C1=O)N2c1ncc2[nH]nc(-c3cnn(C4CCC4)c3)c2n1` (single isomer, unassigned) [Example 63, 8-(3-(1-Cyclobutyl-1H-pyrazol-4-yl)-1H-pyrazolo[4,3-d]pyrimidin-5-yl)-3-methyl-3,8-diazabicyclo[3.2.1]octan-2-one], for which the IC50 against FGFR2 (P) (FGFR2 (P) IC50 (nM)) is 500 to 2000 nM.

As for `CCN1CCN(c2ccc(-c3n[nH]c4cnc(N5[C@H](C)CN(C(=O)OC)C[C@@H]5C)nc34)cc2C)CC1` [Example 25, Methyl (3R,5S)-4-(3-(4-(4-ethylpiperazin-1-yl)-3-methylphenyl)-1H-pyrazolo[4,3-d]pyrimidin-5-yl)-3,5-dimethylpiperazine-1-carboxylate], the IC50 on ALK2 is 0.1 to 0.5 µM; at ALK2 (aa 147-end) (setting [1]), less than 0.1 µM; at ALK2 (aa 147-end) (setting [2]) it was less than 0.1 µM.

Consider `Cc1cnc2n1CCN(c1ncc3[nH]nc(-c4ccc(N5CCN[C@H](C)C5)nc4)c3n1)C2` [Example 19, (R)-5-(3-Methyl-5,6-dihydroimidazo[1,2-a]pyrazin-7(8H)-yl)-3-(6-(3-methylpiperazin-1-yl)pyridin-3-yl)-1H-pyrazolo[4,3-d]pyrimidine], for which the IC50 at FGFR2 (P) (FGFR2 (P) IC50 (nM)) was 100 to 500 nM; against FGFR1 (UP), 0.5 to 2 µM; at ALK2, 0.1 to 0.5 µM; on ALK2 (aa 147-end) (ALK2 1 mM IC50, 1 mM ATP), 0.1 to 0.5 µM; on ALK2 (aa 147-end) (setting [1]), less than 0.1 µM; on ALK2 (aa 147-end) (setting [2]) it was less than 0.1 µM. For the same compound, the IC50 against FGFR3 (UP) lay in the range of 0.1 to 0.5 µM.

Take `C[C@@H]1CN(c2ccc(-c3n[nH]c4cnc(N5[C@@H]6CCC[C@H]5[C@@H](O)C6)nc34)cn2)CCN1` [Example 4, (1R,5S,6S)-8-(3-(6-((R)-3-Methylpiperazin-1-yl)pyridin-3-yl)-1H-pyrazolo[4,3-d]pyrimidin-5-yl)-8-azabicyclo[3.2.1]octan-6-ol]: the IC50 at FGFR2 (P) (read-out: FGFR2 (P) IC50) is less than 100 nM; against FGFR1 (UP), 0.1 to 0.5 µM; at ALK2, 0.1 to 0.5 µM; on ALK2 (aa 147-end) (setting [1]) it was less than 0.1 µM; on ALK2 (aa 147-end) (setting [2]), less than 0.1 µM; on ALK2 (aa 147-end) (setting [3]) it was less than 0.1 µM. For the same compound, the IC50 on FGFR3 (UP) (read-out: FGFR3 (UP) IC50, un-phosphorylated enzyme, ATP near or below Km) was less than 0.1 µM.

Consider `COC(=O)N1C[C@@H](C)N(c2ncc3[nH]nc(-c4ccc(C5CCN(C)C5)cc4)c3n2)[C@@H](C)C1` (stereo partly drawn) [Example 27, Methyl (3R,5S)-3,5-dimethyl-4-(3-(4-(1-methylpyrrolidin-3-yl)phenyl)-1H-pyrazolo[4,3-d]pyrimidin-5-yl)piperazine-1-carboxylate], for which the IC50 at ALK2 is 0.1 to 0.5 µM; against ALK2 (aa 147-end) (ALK2 1 mM IC50, 1 mM ATP) it was 0.1 to 0.5 µM; at ALK2 (aa 147-end) (setting [1]), less than 0.1 µM.

As to `COC(=O)N1C[C@@H](C)N(c2ncc3[nH]nc(-c4ccc(N5CCN6C[C@@H](O)C[C@@H]6C5)cc4)c3n2)[C@@H](C)C1` [Example 35, Methyl (3R,5S)-4-(3-(4-((7S,8aR)-7-hydroxyhexahydropyrrolo[1,2-a]pyrazin-2(1H)-yl)phenyl)-1H-pyrazolo[4,3-d]pyrimidin-5-yl)-3,5-dimethylpiperazine-1-carboxylate], the IC50 at ALK2 is 0.1 to 0.5 µM; at ALK2 (aa 147-end) (ALK2 1 mM IC50, 1 mM ATP), 0.1 to 0.5 µM; at ALK2 (aa 147-end) (setting [1]), less than 0.1 µM.

With `COCCn1cc(-c2n[nH]c3cnc(N4C5CCC4C(=O)N(C)C5)nc23)cn1` (centres unmarked) [Example 53, 8-(3-(1-(2-Methoxyethyl)-1H-pyrazol-4-yl)-1H-pyrazolo[4,3-d]pyrimidin-5-yl)-3-methyl-3,8-diazabicyclo[3.2.1]octan-2-one], the IC50 at FGFR2 (P) (read-out: FGFR2 (P) IC50) is less than 100 nM.

For the compound `CN1CC2CCC(C1=O)N2c1ncc2[nH]nc(-c3cnn(C4CCOCC4)c3)c2n1` (centres unmarked) [Example 54, 3-Methyl-8-(3-(1-(tetrahydro-2H-pyran-4-yl)-1H-pyrazol-4-yl)-1H-pyrazolo[4,3-d]pyrimidin-5-yl)-3,8-diazabicyclo[3.2.1]octan-2-one], on FGFR2 (P) (read-out: FGFR2 (P) IC50), the IC50 was less than 100 nM.

Take `Cn1cc(-c2n[nH]c3cnc(N4CCN(C5CC5)C(=O)C4)nc23)cn1` [Example 37, 1-Cyclopropyl-4-(3-(1-methyl-1H-pyrazol-4-yl)-1H-pyrazolo[4,3-d]pyrimidin-5-yl)piperazin-2-one]: the IC50 against FGFR2 (P) (FGFR2 (P) IC50 (nM)) is 500 to 2000 nM; at FGFR1 (UP) (setting [4]), more than 2 µM; at FGFR3 (UP), 0.1 to 0.5 µM.

As to `CC1C(=O)N(C)CCN1c1ncc2[nH]nc(-c3cnn(C)c3)c2n1` (centres unmarked) [Example 38, 1,3-Dimethyl-4-(3-(1-methyl-1H-pyrazol-4-yl)-1H-pyrazolo[4,3-d]pyrimidin-5-yl)piperazin-2-one], the IC50 on FGFR2 (P) (read-out: FGFR2 (P) IC50) was less than 100 nM; against ALK2 (aa 147-end) (ALK2 3 μM IC50, 3 uM ATP), 0.1 to 0.5 µM; on ALK2 (aa 147-end) (ALK2 100 μM IC50, 100 uM ATP) it was 0.5 to 2 µM.

As to `CN1CC2CCC(C1=O)N2c1ncc2[nH]nc(-c3cnn([C@H]4CC[C@H](O)CC4)c3)c2n1` (stereo partly drawn) [Example 55, 8-(3-(1-((1r,4S)-4-Hydroxycyclohexyl)-1H-pyrazol-4-yl)-1H-pyrazolo[4,3-d]pyrimidin-5-yl)-3-methyl-3,8-diazabicyclo[3.2.1]octan-2-one], the IC50 on FGFR2 (P) (read-out: FGFR2 (P) IC50) was less than 100 nM.
